# According to patent US10426818B2, “Method and pharmaceutical composition for use in the treatment of diabetes” (INSERM (INSITUT NATIONAL DE LA SANTE ET DE LA RECHERCHE …, priority 2015, dated 2019):
# Read-outs that look alike come from different tables or passages of the source.
# Tested on: overweighed healthy volunteers
# Settings: for ΔGIR (difference in Glucose Infusion Rate): single 2 hours continuous intravenous infusion, 8 volunteers
# Procedure: This trial is a Phase 1, exploratory, monocentric, placebo-controlled, double blinded, crossover study.
# Two groups of 8 male, overweighed (BMI 25-30 kg/m^2) healthy volunteers were included in this study.
# The first 8 volunteers were included in the low dose group.
# The next 8 volunteers were included in the high dose group.
# Euglycemic Hyperinsulinemic Clamp Technique • Insulin (Actrapid®, NovoNordisk, Copenhagen, Denmark) was perfused for 4 hours at a constant supra-physiological rate (1 mU·Kg-1·min-1) resulting in the complete inhibition of hepatic glucose production. • Blood glucose level was measured every 5 min and maintained for 4 hours at a constant physiological value (5 mmol/l) adapting the rate of infusion of a 20% glucose solution.
# The primary endpoint (deltaGIR) was the difference between the GIR measured during the steady state ending the “investigational product” perfusion phase (GIRperfusion) and the GIR measured during the steady state ending the “basal” phase (GIRbasal). Delta GIR=GIRperfusion−GIRbasal
substance,measurement,setting,value
(pyr1)-Apelin-13,change in ΔGIR versus placebo (in words),"9 nmol/kg intravenous, p=0.06",non-significant increase
same,ΔGIR (difference in Glucose Infusion Rate),"9 nmol/kg, p=0.06 versus placebo",+2.21±0.54 mg/kg/min
same,insulin sensitivity versus placebo (in words),"30 nmol/kg intravenous, p=0.03",significant improvement
same,ΔGIR (difference in Glucose Infusion Rate),"30 nmol/kg, p=0.03 versus placebo",+1.72±0.47 mg/kg/min
